Experimental data as given in patent publication US5166135A, “Method for the control of pneumocystis carinii” (Merck & Company, Inc., priority 1991, dated 1992).
“And” between values parts separate entries of the source, which are not always exact repeats. Identical values can stand only once. Numbered stars: 1 amine (or outer) side, 2 acyl side, 3 side chain; on linkers, the order of the positions; unused ones are H or OH. Bridge positions count the residues as written; N and C are the ends. Square brackets hold non-standard residues; d marks the D form. Peptide text beside a SMILES is read from it. * marks the point of attachment. ξ: configuration not given here. Orn(4R-OH,5R-OH) = O=C([C@H](C[C@@H](O)[C@@H](O)N[*:3])N[*:1])[*:2]; ξOrn(4R-OH,5R-OH) = O=C(C(C[C@@H](O)[C@@H](O)N[*:3])N[*:1])[*:2]; Tetradecanoyl(10R,12S-Me2) = CC[C@H](C)C[C@H](C)CCCCCCCCC(=O)*; hTyr(3S-OH,4S-OH) = N[C@H](C(=O)O)[C@H](O)[C@@H](O)c1ccc(O)cc1; ξhTyr(3S-OH,4S-OH) = NC(C(=O)O)[C@H](O)[C@@H](O)c1ccc(O)cc1; ξOrn(4,5-diOH) = O=C(C(CC(O)C(O)N[*:3])N[*:1])[*:2]; ξhTyr(βξ-OH,γξ-OH) = NC(C(=O)O)C(O)C(O)c1ccc(O)cc1; Pro(3S-OH,4S-Me) = C[C@H]1CN[C@H](C(=O)O)[C@H]1O; Benzoyl(4-octyloxy) = CCCCCCCCOc1ccc(C(=O)*)cc1; Gln(3R-OH) = NC(=O)C[C@@H](O)[C@H](N)C(=O)O; Linoleoyl = CCCCC/C=C\C/C=C\CCCCCCCC(=O)*; X1 = C[C@H]1CN([*:1])C(C(=O)[*:2])[C@H]1O; ξPro(3ξ-OH,4ξ-Me) = CC1CNC(C(=O)O)C1O; ξPro(4R-OH) = O=C(O)C1C[C@@H](O)CN1; Stearoyl = CCCCCCCCCCCCCCCCCC(=O)*; Hyp = O=C(O)[CH]1C[CH](O)CN1; ξT = CC(O)C(N)C(=O)O

How the values were obtained:
Pneumocystis carinii [1] = experiment: Rat study of the 2-aminoethyl ether of tetrahydroechinocandin B, four days subcutaneous, four dose levels; format: in vivo, Sprague-Dawley rats; conditions: rats
Protocol: In still another study, the antipneumocystis activity of a compound in wherein R^I is OH, R^II is OH, R^III is --CH2 CH2 NH2, R^I is OH, R^V is CH3, R^V is CH3, R is [drawing 21] preparation and structure in Example G) was determined. In this study, Sprague-Dawley rats (weighing approximately 250 g) were immunosuppressed with dexasone in the drinking water (2.0 mg/L) and maintained on a regular protein diet for 7 weeks to induce the development of pneumocystis pneumonia from a latent infection. Before drug treatment 2 rats were sacrificed to confirm the presence of Pneumocystis carinii pneumonia (PCP), both rats had infections. The remaining rats (weighing approximately 150 g) were distributed into groups of 6 and injected twice daily for four days subcutaneously with compound in 0.25 ml of vehicle (10% DMSO). The control groups received vehicle alone. All animals continued to receive dexasone in the drinking water and regular diet during the drug treatment period. At the completion of treatment all animals were sacrificed, the lungs were removed and processed, and the extent of disease determined by microscopic analysis of stained slides.
Four dose levels of this compound were tested.

[2] = test system: Pneumocystis carinii cysts; experiment: 4-day treatment experiments, minimum effective dose for 90 percent clearance of cysts (Table III); format: in vivo; conditions: minimum effective dose for 90 percent clearance of cysts, six animals per dose level
Protocol: When 4-day treatment experiments were carried out in a similar manner, but using different doses in order to determine the minimum effective dose for 90 percent clearance of Pneumocystis carinii cysts, the results shown on Table III were obtained (Six animals were used at each dose level.)

Pneumocystis carinii [3] = experiment: Similar rat study, 7 days treatment, antipneumocystis activity of Compound IBii and Compound IA; format: in vivo; conditions: rats, 2 mg/kg injected twice daily for 7 days; vehicle 10% DMSO
Protocol: A similar rat study was conducted to determine the antipneumocystis activity of 1-[(4R,5R)-4,5-dihydroxy-N^2 -[4-(octyloxy)benzoyl]-L-iiornithine]echinocandin B (Compound IBii). After 6 weeks of immunosuppression the rats were injected twice daily for 7 days with vehicle alone, Compound IBii (2 mg/kg) or Compound IA (2 mg/kg) during which time immunosuppression was continued. At the end of the treatment period the animals were sacrificed and the number of cysts per lung determined. Compound IA reduced the number of cysts by >99% while Compound IBii reduced the cyst counts by approximately 84% (compared to the vehicle control, 10% DMSO).

P. carinii [4] = experiment: Immunosuppressed mice study, reduction of cysts (Table II); format: in vivo, C3 H/HeN mice; conditions: 2 mg/kg intraperitoneally twice daily for one week
Excerpt: Male C3 H/HeN mice, weighing 22-24 grams each, were immunosuppressed by the addition of dexamethasone to the drinking water for six weeks to induce the development of P. carinii infections. To enhance the infections the mice were also maintained on a low protein diet. At the beginning of the seventh week, the mice were randomly divided into groups of 6. All groups continued to receive dexamethasone in the drinking water and low protein diet for the remainder of the study. Mice in each group were injected intraperitonially twice daily with 0.5 ml of a 10% DMSO solution as a vehicle control or the same cocktail containing drug to achieve a dose of 2 mg/kg. This procedure was continued for one week.
At the end of the treatment period (a total of seven weeks of immunosuppression) the animals were sacrificed and the lung tissue removed. The tissue was then processed to determine the number of cysts for each animal.

Solubility properties = format: physicochemical; conditions: methanol, ethanol, dimethylformamide, dimethyl sulfoxide, and the like
P. carinii [5] = experiment: In vivo testing of Compound IA and TMP-SMZ against P. carinii in immunosuppressed rats (Table I); parameters: species or system Sprague-Dawley rats
Protocol: In a representative study employing Compound IA in rats, nine male Sprague-Dawley rats from a colony known to have latent P. carinii infections, weighting approximately 200 grams each, were immunosupressed by the addition of dexamethasone to the drinking water (2.0 mg/liter) for six weeks to induce the development of P. carinii infections. To enhance the infection the rats were also maintained on a low protein diet. At the beginning of the seventh week the rats were divided into three groups of three rats each. All three groups continued to receive dexamethasone in the drinking water and low protein diet throughout the remainder of the study. The rats in Group I were kept as untreated infected controls, those in Group II were injected intraperitoneally twice daily for two weeks with 0.5 ml of sterile dH2 O containing 2 mg of Compound IA, and those in Group III were treated with trimethoprim-sulfamethoxazole (TMP-SMZ) in the drinking water (208 mg TMP and 1.040 g of SMZ/liter) for two weeks, a known treatment for P. carinii infections. Two rats died early in the experiment. One was from group II (rat 72A) and the other from group III (rat 75A). It was not determined whether they died from Pneumocystis pneumonia. At the end of the two week treatment period (a total of eight weeks of immunosuppression) the animals were sacrificed and the lung tissue removed. The lungs from each animal were weighed, and then processed to determine the number of cysts and parasite nuclei for each animal.

P. carinii [6] = experiment: Long term (21 days) therapy study, rate of cyst clearance; format: in vivo
Protocol: Pentamadine was administered intravenously daily at a dose of 10 mg/kg, 2.5 times the recommended dose for man. Compound IA was given twice daily intraperitonealy at 1.0 mg/kg.

P. carinii [7] = experiment: Repeat rat experiment with larger number of rats, cysts per lung; format: in vivo; conditions: five rats Compound IA, six rats TMP-SMZ; DMSO control 5.8×10^5 to 3.1×10^7; limit of resolution 2.8×10^3
P. carinii [8] = experiment: Prophylaxis study in immunosuppressed rats with latent P. carinii infections (Table IV); format: in vivo
Protocol: In a study to test the effectiveness of these compounds as a potential prophylactic agent, rats with latent P. carinii infections were immunosuppressed with dexamethasone in drinking water to stimulate the development of acute PCP. During this immunosuppression period the animals were given daily subcutaneous injections of either 1 mg/kg of Compound IA or vehicle. After six weeks all animals were sacrificed. The number of cysts per lung was determined microscopically and the nuclei (trophozites)were quantitated using a specific DNA probe. From the following table (Table IV) it can be seen that the development of both cysts and trophozoite forms of P. carinii is prevented by daily treatments of Compound IA.

[9] = individual rats, after two weeks treatment
[10] = individual rats, after two weeks: Compound IA 2 mg i.p. twice daily, or TMP-SMZ in drinking water
[11] = 1 mg/kg s.c. daily for six weeks, P ≤ 0.002

Question: Which reduction of cysts (Pneumocystis carinii [1]; 18.25 μg/kg s.c. twice daily for four days) does the source give for “Tetrahydroechinocandin-B, 2-aminoethyl Ether, Trifluoroacetate Salt [Example G]” here?
Answer: The reduction of cysts was 96%.

Question: And the reduction of cysts (Pneumocystis carinii [1]; 37.5 μg/kg s.c. twice daily for four days)?
Answer: Its reduction of cysts is 98%.

Question: What about the reduction of cysts (Pneumocystis carinii [1]; 75 μg/kg s.c. twice daily for four days) of the same molecule?
Answer: The reduction of cysts was 99%.

Question: And the reduction of cysts (Pneumocystis carinii [1]; 150 μg/kg s.c. twice daily for four days)?
Answer: The reduction of cysts was 99%.

Question: And the ED90 (Pneumocystis carinii [1]; s.c. twice daily for four days, cyst reduction)?
Answer: The ED90 was “below 18.25 μg/kg”.

Question: What about the ED90 [2] of the same molecule?
Answer: Its ED90 is < 0.02 mg/kg.

Question: With CCCCCCCCOc1ccc(C(=O)NC2C[C@@H](O)[C@@H](O)NC(=O)C3[C@@H](O)[C@@H](C)CN3C(=O)C(C(C)O)NC(=O)C([C@H](O)[C@@H](O)c3ccc(O)cc3)NC(=O)C3C[C@@H](O)CN3C(=O)C(C(C)O)NC2=O)cc1 (stereo partly drawn) [Compound IBii, 1-[(4R,5R)-4,5-dihydroxy-N^2-[4-(octyloxy)benzoyl]-L-ornithine]echinocandin B] ({Benzoyl(4-octyloxy)}-[ξOrn(4R-OH,5R-OH)][ξT][ξPro(4R-OH)][ξhTyr(3S-OH,4S-OH)][ξT][X1]; lactam 1-C) as the molecule, how does the “reduction of number of cysts per lung compared to vehicle control” value (Pneumocystis carinii [3]) read?
Answer: Its value is “approximately 84%”.

Question: And the ED90 [2]?
Answer: The ED90 was 4.0 mg/kg.

Question: For “O-benzyltetrahydroechinocandin B [O-Benzyl-TEB]”, which “% Reduction of Cysts” value (P. carinii [4]) is on record?
Answer: Its value is 99%.

Question: What does the source list for CC[C@H](C)C[C@H](C)CCCCCCCCC(=O)N[C@H]1C[C@@H](O)[C@@H](O)NC(=O)[C@@H]2[C@@H](O)[C@@H](C)CN2C(=O)[C@H]([C@H](O)CC(N)=O)NC(=O)[C@H]([C@H](O)[C@@H](O)c2ccc(O)cc2)NC(=O)[C@@H]2C[C@@H](O)CN2C(=O)[C@H]([C@@H](C)O)NC1=O [Compound IA] ({Tetradecanoyl(10R,12S-Me2)}-[Orn(4R-OH,5R-OH)]T[Hyp][hTyr(3S-OH,4S-OH)][Gln(3R-OH)][Pro(3S-OH,4S-Me)]; lactam 1-C)?
Answer: reduction of number of cysts per lung compared to vehicle control (Pneumocystis carinii [3]): > 99%; solubility in organic solvents (Solubility properties): soluble; % Reduction of Cysts (P. carinii [4]): > 99%; CYST SCORE (P. carinii [5]; [9]): 0; LUNG WT. (P. carinii [5]; [9]): 2.83 gms and 1.40 gms; TOTAL NUCLEI per gm lung (P. carinii [5]; [10]): 7.4 × 10^8 and 7.1 × 10^8; TOTAL NUCLEI per lung (P. carinii [5]; [10]): 2.1 × 10^9 and 1.0 × 10^9; cysts in the lungs of treated rats (P. carinii [5]; two weeks treatment, controls 3.2×10^8 -1.5×10^9): No cysts could be found; number of parasite nuclei (range over treated rats) (P. carinii [5]; two weeks treatment, controls 5.8×10^9 -1.4×10^10): 1.0-2.1×10^9; ED90 [2]: 0.2 mg/kg; extent of cyst clearance (reduction) (P. carinii [6]; Compound IA 1.0 mg/kg i.p. twice daily, compared with known agents at the two week time point): greater than 99%; time to elimination of cysts (P. carinii [6]; Compound IA 1.0 mg/kg intraperitoneally twice daily): ≤ 4 days; number of cysts per lung (range over rats) (P. carinii [7]): 3.2×10^3 to 2.6×10^4; Cysts Log Mean (P. carinii [8]; 1 mg/kg s.c. daily for six weeks during immunosuppression, detection limit 4.66, control 7.76 ± 0.10): 4.70 ± 0.04; Nuclei Log Mean (P. carinii [8]; 1 mg/kg s.c. daily for six weeks, DNA probe, detection limit 4.66, control 7.50 ± 0.15): 4.85 ± 0.05; Cysts Reduction (P. carinii [8]; [11]): > 99.9%; Nuclei Reduction (P. carinii [8]; [11]): 99.8%; Mean Lung Wt. (P. carinii [8]; 1 mg/kg s.c. daily for six weeks, P ≤ 0.002 vs control): 1.81 ± .10 gms; Mean Body Wt. (P. carinii [8]; 1 mg/kg s.c. daily for six weeks, control 147.1 ± 6.3): 142.0 ± 4.2 gms

Question: For “O-methyltetrahydroechinocandin B [O-Methyl-TEB]”, which “% Reduction of Cysts” value (P. carinii [4]) is on record?
Answer: The value was > 99%.

Question: For CCCCCCCCCCCCCCCCCC(=O)NC1CC(O)C(O)NC(=O)C2C(O)C(C)CN2C(=O)C(C(C)O)NC(=O)C(C(O)C(O)c2ccc(O)cc2)NC(=O)C2CC(O)CN2C(=O)C(C(C)O)NC1=O (stereo not drawn) [Tetrahydroechinocandin B (TEB), tetrahydroechinocandin B] (Stearoyl-[ξOrn(4,5-diOH)]T[Hyp][ξhTyr(βξ-OH,γξ-OH)]T[ξPro(3ξ-OH,4ξ-Me)]; lactam 1-C; configuration not given here), which “% Reduction of Cysts” value (P. carinii [4]) is on record?
Answer: The value was 99%.

Question: What about the ED90 [2] of the same molecule?
Answer: Its ED90 is 0.2 mg/kg.

Question: For CCCCC/C=C\C/C=C\CCCCCCCC(=O)N[C@H]1C[C@@H](O)[C@@H](O)NC(=O)[C@@H]2[C@@H](O)[C@@H](C)CN2C(=O)[C@H]([C@@H](C)O)NC(=O)[C@H]([C@H](O)[C@@H](O)c2ccc(O)cc2)NC(=O)[C@@H]2C[C@@H](O)CN2C(=O)[C@H]([C@@H](C)O)NC1=O [Echinocandin B] (Linoleoyl-[Orn(4R-OH,5R-OH)]T[Hyp][hTyr(3S-OH,4S-OH)]T[Pro(3S-OH,4S-Me)]; lactam 1-C), which “% Reduction of Cysts” value (P. carinii [4]) is on record?
Answer: Its value is > 99%.

Question: And the ED90 [2]?
Answer: The ED90 was 1.2 mg/kg.
